Data taken from paper PMC9853869, “The Myxobacterial Antibiotic Myxovalargin: Biosynthesis, Structural Revision, Total Synthesis, and Molecular Characterization of Ribosomal Inhibition” (Journal of the American Chemical Society, 2023).
In brackets after ≈: the same amount, converted by molar mass. Read-outs that look alike come from different tables or passages of the source. *1 amine or outer side, *2 acyl side, *3 side chain or, on linkers, in order; H or OH if unused. Where a SMILES comes first, the peptide text is derived from it. [ ]: non-standard residue; d: D form. The star is where a group is joined. X1 = O=C(C[C@H](N[*:1])c1ccc(O)cc1)[*:2]; dVal(3-OH) = CC(C)(O)[C@@H](N)C(=O)O; ΔIle(E) = CC/C(C)=C(/N)C(=O)O; Isovaleryl = CC(C)CC(=O)*; Agmatine = N=C(N)NCCCCN*; NMeA = CN[C@@H](C)C(=O)O; ΔVal = CC(C)=C(N)C(=O)O

Key:
Pasteurella multocida [1] = test system: Pasteurella multocida
[2] = test system: Chromobacterium violaceum DSM-30191; details: DSM-30191, 24 h
Streptococcus uberis = details: 4 h
in vivo = details: BALB/c, mouse
[3] = test system: intracellular M. tuberculosis H37Rv; assay: Intracellular activity ex vivo in THP-1-derived macrophages; type: cell-based, Mycobacterium tuberculosis
M. tuberculosis H37Rv [4] = test system: M. tuberculosis H37Rv
[5] = test system: Staphylococcus aureus DSM-346; details: DSM-346, 24 h
M. tuberculosis H37Rv [6] = assay: Time-kill kinetics in vitro; type: cell-based, Mycobacterium tuberculosis; details: independent triplicates
Pasteurella multocida [7] = details: for Survival rate 48 hpi: single dose 1 h post-infection
[8] = test system: Escherichia coli K12 ΔtolC; details: K12, 24 h
[9] = test system: Mycobacterium smegmatis mc2155; details: mc2155, 48 h
Staphylococcus aureus = details: 4 h
HepG2 cells = details: HepG2, 24 h, alamarBlue, 0.005 - 99.0 μM, mean of 4 replicates
[10] = test system: Escherichia coli DSM-1116; details: DSM-1116, 24 h
[11] = test system: Micrococcus luteus DSM-1790; details: DSM-1790, 24 h
[12] = test system: Pseudomonas aeruginosa PAO1; details: PAO1, 24 h
[13] = test system: Enterococcus faecium DSM-20477; details: DSM-20477, 24 h
[14] = test system: Pseudomonas aeruginosa PA14; details: PA14, 24 h

CC/C(C)=C(/NC(=O)[C@H](NC(=O)[C@@H](NC(=O)[C@@H](CCCNC(=N)N)NC(=O)C(NC(=O)[C@H](NC(=O)C[C@H](NC(=O)[C@H](NC(=O)[C@H](NC(=O)[C@H](C)N(C)C(=O)[C@H](C)NC(=O)C(NC(=O)CC(C)C)=C(C)C)C(C)C)C(C)C)c1ccc(O)cc1)C(C)C)=C(C)C)C(C)C)C(C)C)C(=O)N[C@H](C)C(=O)N[C@@H](C(=O)NCCCCNC(=N)N)C(C)(C)O [MyxA, Myxovalargin A] (Isovaleryl-[ΔVal]A[NMeA][dV][dV][X1][dV][ΔVal][dR]V[dV][ΔIle(E)][dA][dVal(3-OH)]-Agmatine)
effect on bacterial burden in lung and spleen (M. tuberculosis; 2 mg/kg i.p. daily, study terminated after 1 week): no significant effect on bacterial burden | toxicity in infected mice (M. tuberculosis; mouse, in vivo): moribund after 1 week | MIC50 (Pasteurella multocida [1]; 4 h): 16 µg/mL (≈ 9.54 µM) | MIC + serum (Pasteurella multocida [1]; 4 h): 10 µg/mL | MIC90 (Pasteurella multocida [1]; bovine isolates, n = 25): 16 µg/mL (≈ 9.54 µM) | MIC [2]: 8 µg/mL (≈ 4.77 µM) | MIC (Streptococcus uberis): 0.25 to 2 µg/mL | MIC + milk (Streptococcus uberis): > 64 µg/mL | MIC50 (Mannheimia haemolytica; 4 h): 16 µg/mL (≈ 9.54 µM) | MIC + serum (Mannheimia haemolytica; 4 h): 20 µg/mL | MIC90 (Mannheimia haemolytica; bovine isolates, n = 55): 16 µg/mL (≈ 9.54 µM) | level at 0.5 h (in vivo; ip, 10 mg/kg): 1830 ng/mL | level at 2 h (in vivo; ip, 10 mg/kg): 1550 ng/mL | level at 0.5 h (in vivo; sc, 50 mg/kg): 5260 ng/mL | level at 2 h (in vivo; sc, 50 mg/kg): 2280 ng/mL | mode of action ex vivo (intracellular) [3]: bacteriostatic activity | MIC (M. tuberculosis H37Rv [4]): 0.2 µg/mL (≈ 0.119 µM) | MIC [5]: 2 µg/mL (≈ 1.19 µM) | mode of killing in vitro (M. tuberculosis H37Rv [6]): dose-dependent bactericidal activity | Survival rate 48 hpi (Pasteurella multocida [7]; 10 mg/kg MyxA, i.p., groups of 6): 83% | Mean bacteria in liver (Pasteurella multocida [7]; 10 mg/kg MyxA, i.p., n=1): 8.5 x 10^7 CFU/g | Mean bacteria in liver (Pasteurella multocida [7]; 10 mg/kg MyxA, i.p., n=5): 0 CFU/g | bacteriological cure (animals) (Pasteurella multocida [7]; 10 mg/kg i.p.): five out of six | Mean bacteria in liver (Pasteurella multocida [7]; 50 mg/kg MyxA, s.c.): 1.8 x 10^6 CFU/g | Survival rate 48 hpi (Pasteurella multocida [7]; 50 mg/kg MyxA, s.c.): 0% | tolerability (clinical scoring) (Pasteurella multocida [7]; single 10 mg/kg i.p. dose, P. multocida sepsis model): well tolerated | MIC [8]: 16 µg/mL (≈ 9.54 µM) | MIC [9]: 4 µg/mL (≈ 2.39 µM) | tolerability (0.5 mg/kg/day i.p., seven consecutive doses): well tolerated | tolerability (5 mg/kg/day i.p., on day 2): severe adverse effects | half-life (in words) (mice, i.p. 0.5, 2 and 5 mg/kg, blood, LC-MS): long half-life | MIC (Staphylococcus aureus): 1 to 2 µg/mL | MIC + milk (Staphylococcus aureus): > 64 µg/mL | median cytotoxic dose CTD50 (HepG2 cells): > 99 µM | MIC50 (Histophilus somni; 4 h): 4 µg/mL (≈ 2.39 µM) | MIC range (Histophilus somni; 4 h): 2 to 8 µg/mL | MIC90 (Histophilus somni; bovine isolates, n = 20): 8 µg/mL (≈ 4.77 µM) | MIC [10]: 32 µg/mL (≈ 19.1 µM) | MIC [11]: 1 µg/mL (≈ 0.596 µM) | MIC [12]: 32 µg/mL (≈ 19.1 µM) | MIC [13]: 0.5 µg/mL (≈ 0.298 µM) | MIC [14]: 16 µg/mL (≈ 9.54 µM)
